{"source": "paper PMC2630848", "about": "“Acetylcholinesterase-Inhibiting Activity of Pyrrole Derivatives from a Novel Marine Gliding Bacterium, Rapidithrix thailandica” (Marine Drugs, 2008)", "biological_target": "acetylcholinesterase (AChE) (Tetronarce californica, UniProt P04058)", "sequence (P04058 22-564)": "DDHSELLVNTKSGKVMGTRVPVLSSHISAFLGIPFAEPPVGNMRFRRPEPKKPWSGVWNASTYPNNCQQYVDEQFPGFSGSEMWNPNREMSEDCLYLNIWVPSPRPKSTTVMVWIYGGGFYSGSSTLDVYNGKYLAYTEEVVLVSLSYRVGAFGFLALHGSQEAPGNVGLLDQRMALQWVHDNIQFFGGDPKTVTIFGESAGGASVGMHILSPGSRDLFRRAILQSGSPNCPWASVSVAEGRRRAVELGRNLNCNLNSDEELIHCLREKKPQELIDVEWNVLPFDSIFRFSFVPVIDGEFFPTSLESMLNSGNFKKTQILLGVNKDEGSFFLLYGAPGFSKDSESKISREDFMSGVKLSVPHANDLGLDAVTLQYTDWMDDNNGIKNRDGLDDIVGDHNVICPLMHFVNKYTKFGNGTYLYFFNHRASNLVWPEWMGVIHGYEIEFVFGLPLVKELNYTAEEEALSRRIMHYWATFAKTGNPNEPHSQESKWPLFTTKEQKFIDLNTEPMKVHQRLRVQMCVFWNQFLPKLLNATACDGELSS", "assay": "Ellman colorimetric AChE assay with acetylthiocholine iodide and DTNB, […] nm, triplicate", "type": "biochemical", "data": [{"compound": "Cc1nc2ccccc2c2cc[nH]c12", "note": "[compound 1, 4-Methyl-3H-pyrrolo[2,3-c]quinoline]", "values": [{"measurement": "IC50", "result": "4.9 ± 0.9", "unit": "µM"}]}]}
